# Data published in US20090186361A1, “METHODS OF PREDICTING THE PHARMACEUTICAL TOXICITY OF TAXANES” (priority 2008, published 2009).
# Experiments:
# Type in all cases: in vivo, human
# MAPT = assay: Regression / mixed model of Toxicity Index on MAPT SNP genotype of recipient subjects; conditions: for Fixed effect Estimate, COL6_2 (MAPT_H1): TT=1, CC=0
# Description: (§1) The GENOMELAB SNPSTREAM™ (Beckman) was utilized to accommodate up to 92,000 genotypes per day. This automated, multiplexed system can process up to 48 SNPs in each well of an arrayed 384-well plate. The SNPSTREAM™ operates at a consistent cost per genotype or per sample, regardless of run throughput, allowing users to cost-effectively zero in on targets with low-throughput studies as well as conduct high-throughput analyses.
# (§2) The SNPSTREAM™ Genotyping System features a protocol with three steps. The technology is based on single-based primer extension technology. The system's high sensitivity delivers results using as little as 2 ng of genomic DNA. SNPWARE™ reagent kits were used. The kits included ready-to-use reagents, all performed in the original PCR plate according to the manufacturer's instructions, and incorporated herein by reference in its entirety.
# (§3) Multiplexed reactions were spatially resolved on a SNPWARE™ Tag Array plate. Each of the 384 wells in a plate contained 16 or 52 unique oligonucleotides of a known sequence, or tag. Each tag on the plate was complementary to one of the tags of the 12 or 48 extension primers, plus four controls to ensure accuracy. After transfer to the Tag Array plate, each SNP was hybridized to its complementary tag. SNPs were then identified by their position in the well.
# (§4) The process involved a multiplex PCR followed by an annealing reaction of the oligonucleotide to the specific PCR product. Next the oligonucleotide was extended by a single base which was fluorescently labeled with a terminating NTP and finally detected by two-colored fluorescence specific for the allele.
# (§5) For each SNP, the -PCRU and -PCRL primers were first used to amplify a relevant DNA fragment surrounding the target SNP site. The components per reaction were: H2O, 3.0 μl; 10× PCR Buffer II, 0.5 μl; MgCl2 (25 mM), 1.0 μl; dNTPs (2.5 mM each), 0.18 μl; PCR Primer Pool (2.5 μM each), 0.1 μl; AMPLITAQ GOLD™ (5 U/μl), 0.125 μl for a total volume of 5.0 μl per reaction.
# (§6) Primer -SNPU or SNPL was then used for single-base extension reaction. The thermocycler program was as follows: Step 1: 96° C. for 3 min; Step 2: 94° C. for 20 sec; Step 3: 40° C. for 11 sec; and Step 5: return to step 2 59 times, and finally to hold at 4° C.
# (§7) A preliminary data analysis focused on the relationship between the Toxicity Index and the recipient subjects' demographic/genetic information. […] Univariate linear regression analysis was conducted first to find significant covariates in predicting the Toxicity Index in one of five cycles, then multivariable analysis was used to determine the best model in fitting the data. A mixed model for repeated measurement was implemented in modeling Toxicity Index in the first five cycles, and also in all cycles. Autoregressive covariance structure was used in the mixed model. SAS and Minitab were used in the analysis.
# (§8) Covariates in the analysis included recoded binary demographic variables (sex, race, site, grade, stage) and recoded binary genetic variables.
# (§9) Multivariable regression analysis was used to find the best model in predicting the Toxicity Index in each of the first five cycles.
# A mixed model for repeated measurements was implemented to find the best model in fitting the longitudinal data. Autoregressive covariance structure was used in the mixed model. Toxicity Indexes in the first five cycles were included in the analysis.
# To model Toxicity Indexes in all 21 cycles, a mixed model was used to find the best model. For the paclitaxel, Received dose and MAPT_H14 were significant fixed effects in predicting the longitudinal Toxicity Index in all cycles.
# CYP3A5 = assay: Regression of Toxicity Index on CYP3A5 SNP genotype of recipient subjects; conditions: for Para. Est., TI5 vs CYP3A5_3A (multivariable): multivariable analysis best model; for Para. Est., TI5 vs CYP3A5_3A (multivariable) / Para. Est., TI5 vs CYP3A5_3A1 / Para. Est., TI5 vs CYP3A5_3A: cycle 5
# Description: as §1, §2, §3, §4, §5, §6, §7, §8, §9
# CYP2C8 gene locus = assay: Regression of Toxicity Index on CYP2C8 SNP genotype of recipient subjects
# Description: The […] ™ Genotyping System features a protocol with three steps. The technology is based on single-based primer extension technology. […] SNPWARE™ reagent kits were used.
# For each SNP, the -PCRU and -PCRL primers were first used to amplify a relevant DNA fragment surrounding the target SNP site. The components per reaction were: H2O, 3.0 μl; 10× PCR Buffer II, 0.5 μl; MgCl2 (25 mM), 1.0 μl; dNTPs (2.5 mM each), 0.18 μl; PCR Primer Pool (2.5 μM each), 0.1 μl; [sequence] GOLD™ (5 U/μl), 0.125 μl for a total volume of 5.0 μl per reaction.
# TUBB gene locus = assay: Regression of Toxicity Index on TUBB SNP genotype of recipient subjects
# Description: as §1, §2, §3, §4, §5, §6
# Thirty (30) recipient subjects already receiving treatment with paclitaxel were screened for the presence of SNPs in the CYP2C8 and TUBB loci. Clinical data from each of the recipient subjects was used to first calculate a Toxicity Index (TI) value for each individual according to the method presented in Example 1, above. The genotype for each recipient subject with regard to the SNPs of CYP2C8 and TUBB was determined using SNPWARE™ and single base extension according to the methods of Example 4, above.
# For the CYP2C8 locus, two genotypes for the rsl 058932 SNP (as shown in FIG. 1) were considered: heterozygous TC and homozygous CC. For the TUBB locus (SNP rs3132584), the heterozygous SNP CA, and the combined homozygous AA and CC variants, were considered.
# as §7, §8, §9
compound,measurement,setting,value
"CC(=O)O[C@@]12CO[C@@H]1C[C@H](O)[C@@]1(C)C(=O)[C@H](O)C3=C(C)[C@@H](OC(=O)[C@H](O)[C@@H](NC(=O)OC(C)(C)C)c4ccccc4)C[C@@](O)([C@@H](OC(=O)c4ccccc4)[C@H]21)C3(C)C (relative stereo) [Docetaxel, Benzenepropanoic acid, β-(((1,1-dimethylethoxy)carbonyl)amino)-α-hydroxy-, 12b-(acetyloxy)-12-(benzoyloxy)-2a,3,4,4a,5,6,9,10,11,12,12a,12b-dodecahydro-4,6,11-trihydroxy-4a,8,13,13-tetramethyl-5-oxo-7,11-methano-1H-cyclodeca(3,4)benz(1,2-b)oxet-9-yl ester trihydrate, (2aR-(2aα,4β,4aβ,6β,9(αR*,βS),11α,12α,12aα,12bα))-]","Fixed effect Estimate, COL6_2 (MAPT_H1)","MAPT; mixed model, longitudinal Toxicity Index in all cycles, Pr > |t| 0.0029",1.1286
same,"Fixed effect Estimate, COL6_2 (MAPT_H1)","MAPT; mixed model, longitudinal Toxicity Index in first five cycles, Pr > |t| 0.0170",1.1407
same,"Para. Est., TI4 vs MAPT_H2 (multivariable)","MAPT; multivariable analysis best model, cycle 4, rs17652121, TT = 1, CC/TC = 0, P-value 0.029",−0.900
same,"Para. Est., TI3 vs MAPT_H13 (multivariable)","MAPT; multivariable regression with Site, cycle 3, rs3785883, GG = 1, AG = 0, P-value 0.003",1.408
same,"Para. Est., TI3 vs MAPT_H1_H21","MAPT; univariate linear regression, cycle 3, rs754512, AA = 1, TA/TT = 0, P-value 0.010",−1.107
same,"Para. Est., TI3 vs MAPT_H1_H22","MAPT; univariate linear regression, cycle 3, rs767058, AA = 1, AG/GG = 0, P-value 0.006",−1.166
same,"Para. Est., TI3 vs MAPT_H1_H23","MAPT; univariate linear regression, cycle 3, rs2055794, GG = 1, AA/AG = 0, P-value 0.010",−1.107
same,"Para. Est., TI3 vs MAPT_H13","MAPT; univariate linear regression, cycle 3, rs3785883, GG = 1, AG = 0, P-value 0.013",−1.245
same,"Para. Est., TI3 vs MAPT_H2","MAPT; univariate linear regression, cycle 3, rs17652121, TT = 1, CC/TC = 0, P-value 0.006",−1.166
same,"Para. Est., TI4 vs MAPT_H1_H21","MAPT; univariate linear regression, cycle 4, rs754512, AA = 1, TA/TT = 0, P-value 0.023",−0.953
same,"Para. Est., TI4 vs MAPT_H1_H22","MAPT; univariate linear regression, cycle 4, rs767058, AA = 1, AG/GG = 0, P-value 0.029",−0.900
same,"Para. Est., TI4 vs MAPT_H1_H23","MAPT; univariate linear regression, cycle 4, rs2055794, GG = 1, AA/AG = 0, P-value 0.023",−0.953
same,"Para. Est., TI4 vs MAPT_H2","MAPT; univariate linear regression, cycle 4, rs17652121, TT = 1, CC/TC = 0, P-value 0.029",−0.900
same,"Para. Est., TI5 vs CYP3A5_3A (multivariable)","CYP3A5; rs776746, AG = 1, GG/AA = 0, P-value 0.024",−1.739
same,"Para. Est., TI4 vs CYP3A5_3A1","CYP3A5; univariate linear regression, cycle 4, rs15524, TC = 1, CC/TT = 0, P-value 0.045",−1.079
same,"Para. Est., TI4 vs CYP3A5_3A","CYP3A5; univariate linear regression, cycle 4, rs776746, AG = 1, GG/AA = 0, P-value 0.045",−1.079
same,"Para. Est., TI5 vs CYP3A5_3A1","CYP3A5; univariate linear regression, rs15524, TC = 1, CC/TT = 0, P-value 0.024",−1.739
same,"Para. Est., TI5 vs CYP3A5_3A","CYP3A5; univariate linear regression, rs776746, AG = 1, GG/AA = 0, P-value 0.024",−1.739
"CC(=O)O[C@H]1C(=O)[C@@]2(C)[C@H]([C@H](OC(=O)c3ccccc3)[C@]3(O)C[C@H](OC(=O)[C@H](O)[C@@H](NC(=O)c4ccccc4)c4ccccc4)C(C)=C1C3(C)C)[C@]1(OC(C)=O)CO[C@@H]1C[C@@H]2O [Paclitaxel, (2aR,4S,4aS,6R,9S,11S,12S,12aR,12bS)-1,2a,3,4,4a,6,9,10,11,12,12a,12b-Dodecahydro-4,6,9,11,12,12b-hexahydroxy-4a,8,13,13-tetramethyl-7,11-methano-5H-cyclodeca(3,4)benz(1,2-b)oxet-5-one 6,12b-diacetate, 12-benzoate, 9-ester with (2R,3S)-N-benzoyl-3-phenylisoserine]","Coef, regression TI1 versus CYP2C8_2_31, TUBB2: predictor CYP2C8_2_31","CYP2C8 gene locus; 30 recipient subjects, rs1058932, heterozygous TC vs homozygous CC, P 0.020",−1.1100
same,"Para. Est., TI4 vs CYP2C8_1C (multivariable)","CYP2C8 gene locus; multivariable analysis best model, cycle 4, rs17110453, AA = 1, CA = 0, P-value 0.033",−1.267
same,"Para. Est., TI1 vs CYP2C8_2_31 (multivariable)","CYP2C8 gene locus; multivariable regression with TUBB2, cycle 1, rs1058932, CC = 1, TC = 0, P-value 0.020",−1.110
same,"Para. Est., TI1 vs CYP2C8_2_31","CYP2C8 gene locus; univariate linear regression, cycle 1, rs1058932, CC = 1, TC = 0, P-value 0.021",−1.168
same,"Para. Est., TI4 vs CYP2C8_1C","CYP2C8 gene locus; univariate linear regression, cycle 4, rs17110453, AA = 1, CA = 0, P-value 0.033",−1.267
same,"Coef, regression TI1 versus CYP2C8_2_31, TUBB2: predictor TUBB2","TUBB gene locus; 30 recipient subjects, rs3132584, heterozygous CA vs combined AA and CC, P 0.039",−0.9135
same,"Para. Est., TI2 vs TUBB4 (multivariable)","TUBB gene locus; multivariable analysis best model, cycle 2, rs1061397, CC = 1, TC/TT = 0, P-value 0.037",−1.185
same,"Para. Est., TI1 vs TUBB2 (multivariable)","TUBB gene locus; multivariable regression with CYP2C8_2_31, cycle 1, rs3132584, CA = 1, CC/AA = 0, P-value 0.039",0.914
same,"Para. Est., TI1 vs TUBB1","TUBB gene locus; univariate linear regression, cycle 1, rs8233, AG = 1, AA/GG = 0, P-value 0.042",0.975
same,"Para. Est., TI1 vs TUBB2","TUBB gene locus; univariate linear regression, cycle 1, rs3132584, CA = 1, CC/AA = 0, P-value 0.042",0.975
same,"Para. Est., TI2 vs TUBB3","TUBB gene locus; univariate linear regression, cycle 2, rs25527, CC = 1, TC/TT = 0, P-value 0.047",−1.062
same,"Para. Est., TI2 vs TUBB4","TUBB gene locus; univariate linear regression, cycle 2, rs1061397, CC = 1, TC/TT = 0, P-value 0.037",−1.185
same,"Fixed effect Estimate, COL18_3 (MAPT_H14)","MAPT; mixed model for repeated measurements, longitudinal Toxicity Index in first five cycles, Pr > |t| 0.0118",0.8918
same,"Fixed effect Estimate, COL18_3 (MAPT_H14)","MAPT; mixed model, longitudinal Toxicity Index in all 21 cycles, Pr > |t| 0.0114",0.6989
same,"Para. Est., TI3 vs MAPT_H14 (multivariable)","MAPT; multivariable analysis best model, cycle 3, rs242557, TC = 1, CC/TT = 0, P-value 0.012",1.236
same,"Para. Est., TI1 vs MAPT_H14","MAPT; univariate linear regression, cycle 1, rs242557, TC = 1, CC/TT = 0, P-value 0.016",1.151
same,"Para. Est., TI3 vs MAPT_H14","MAPT; univariate linear regression, cycle 3, rs242557, TC = 1, CC/TT = 0, P-value 0.012",1.236
same,"Para. Est., TI5 vs CYP3A5_3A (multivariable)","CYP3A5; rs776746, GG = 1, AG = 0, P-value 0.022",1.477
same,"Para. Est., TI5 vs CYP3A5_3A1","CYP3A5; univariate linear regression, rs15524, TT = 1, TC = 0, P-value 0.022",1.477
same,"Para. Est., TI5 vs CYP3A5_3A","CYP3A5; univariate linear regression, rs776746, GG = 1, AG = 0, P-value 0.022",1.477
